For the data set the following is noted: Liquid.

Our source for the mass density values is the NIST ThermoML archive (doi:10.1021/acs.jced.5b00789).

“And” between values parts separate entries of the source, which are not always exact repeats. Identical values can stand only once. ± gives the expanded uncertainty stated by the source.

`CCn1c2ccccc2c2ccccc21` [9-ethylcarbazole]: the mass density (commonly mass per unit of volume) reads like this: (343.2 K, 101.33 kPa) 1062.78 ± 6.6 kg/m3 and 1062.93 ± 6.6 kg/m3 and 1063.05 ± 6.6 kg/m3; (353.2 K, 101.33 kPa) 1055.37 ± 6.4 kg/m3 and 1055.51 ± 6.4 kg/m3 and 1055.63 ± 6.4 kg/m3; (363.2 K, 101.33 kPa) 1048.06 ± 6.3 kg/m3 and 1048.2 ± 6.3 kg/m3 and 1048.32 ± 6.3 kg/m3; (373.2 K, 101.33 kPa) 1040.99 ± 6.1 kg/m3 and 1041.11 ± 6.1 kg/m3 and 1040.85 ± 6.1 kg/m3.
With `CC1CCCCC1` [methylcyclohexane], the mass density by setting is: (293.2 K, 101.33 kPa) 769.72 ± 8.2 kg/m3 and 769.91 ± 8.2 kg/m3 and 770.07 ± 8.2 kg/m3; (303.2 K, 101.33 kPa) 761.08 ± 8.4 kg/m3 and 761.27 ± 8.4 kg/m3 and 761.42 ± 8.4 kg/m3; (313.2 K, 101.33 kPa) 752.63 ± 8.6 kg/m3 and 752.82 ± 8.6 kg/m3 and 752.97 ± 8.6 kg/m3; (323.2 K, 101.33 kPa) 744.55 ± 8.8 kg/m3 and 744.71 ± 8.7 kg/m3 and 744.37 ± 8.8 kg/m3; (333.2 K, 101.33 kPa) 736.29 ± 8.9 kg/m3 and 736.47 ± 8.9 kg/m3 and 736.62 ± 8.9 kg/m3; (343.2 K, 101.33 kPa) 728.38 ± 9.1 kg/m3 and 728.56 ± 9.1 kg/m3 and 728.71 ± 9.1 kg/m3. In addition, the mass density is 720.64 ± 9.3 kg/m3 and 720.82 ± 9.3 kg/m3 and 720.97 ± 9.3 kg/m3 (353.2 K, 101.33 kPa); 713.07 ± 9.4 kg/m3 and 713.24 ± 9.4 kg/m3 and 713.39 ± 9.4 kg/m3 (363.2 K, 101.33 kPa); 705.65 ± 9.6 kg/m3 and 705.82 ± 9.6 kg/m3 and 705.96 ± 9.6 kg/m3 (373.2 K, 101.33 kPa).
Take `Cc1ccccc1` [toluene]: the mass density by setting is: (293.2 K) 867.3 ± 6.3 kg/m3 and 867.61 ± 6.3 kg/m3 and 867.8 ± 6.3 kg/m3; (303.2 K) 855.63 ± 6.5 kg/m3 and 855.94 ± 6.5 kg/m3 and 856.12 ± 6.5 kg/m3; (313.2 K) 844.27 ± 6.8 kg/m3 and 844.57 ± 6.8 kg/m3 and 844.75 ± 6.8 kg/m3; (323.2 K) 833.51 ± 7 kg/m3 and 833.68 ± 7 kg/m3 and 833.21 ± 7 kg/m3; (333.2 K) 822.43 ± 7.2 kg/m3 and 822.73 ± 7.2 kg/m3 and 822.9 ± 7.2 kg/m3; (343.2 K) 811.93 ± 7.4 kg/m3 and 812.22 ± 7.4 kg/m3 and 812.39 ± 7.4 kg/m3. For the same compound, the mass density runs as follows: (353.2 K) 801.69 ± 7.6 kg/m3 and 801.98 ± 7.6 kg/m3 and 802.15 ± 7.6 kg/m3; (363.2 K) 791.71 ± 7.8 kg/m3 and 792 ± 7.8 kg/m3 and 792.16 ± 7.8 kg/m3; (373.2 K) 781.97 ± 8 kg/m3 and 782.26 ± 8 kg/m3 and 782.42 ± 8 kg/m3.
